In PubChem BioAssay AID1982 (Sanford-Burnham Center for Chemical Genomics, 2009):
The source made the active and inactive calls. How the calls were made is not given here.

How the values were obtained:
Assay in all cases: kinase panel binding selectivity, selectivity assay, biochemical, KINOMEscan (AID 1982)
[1] = target: Platelet-derived growth factor receptor beta (Homo sapiens) (UniProt P09619); details: KINOMEscan 353-kinase binding panel, qPCR; PDGFRB; at 10 µM; active compounds read low
[2] = target: Vascular endothelial growth factor receptor 2 (Homo sapiens) (UniProt P35968); details: KINOMEscan 353-kinase binding panel, qPCR; VEGFR2; at 10 µM; active compounds read low
[3] = target: Aurora kinase A (Homo sapiens) (UniProt O14965); details: KINOMEscan 353-kinase binding panel, qPCR; AURKA; at 10 µM; active compounds read low
MAP4K1 = details: KINOMEscan 353-kinase binding panel, qPCR, at 10 µM, active compounds read low
[4] = target: Mitogen-activated protein kinase 14 (Homo sapiens) (UniProt Q16539); details: KINOMEscan 353-kinase binding panel, qPCR; p38-alpha; at 10 µM; active compounds read low
MAP3K4 = details: KINOMEscan 353-kinase binding panel, qPCR, at 10 µM, active compounds read low
TESK1 = details: KINOMEscan 353-kinase binding panel, qPCR, at 10 µM, active compounds read low
[5] = target: Dual specificity protein kinase CLK4 (Homo sapiens) (UniProt Q9HAZ1); details: KINOMEscan 353-kinase binding panel, qPCR, at 10 µM, active compounds read low
DLK = details: KINOMEscan 353-kinase binding panel, qPCR, at 10 µM, active compounds read low
PKN1 = details: KINOMEscan 353-kinase binding panel, qPCR, at 10 µM, active compounds read low
[6] = target: Serine/threonine-protein kinase D1 (Homo sapiens) (UniProt Q15139); details: KINOMEscan 353-kinase binding panel, qPCR; PRKD1; at 10 µM; active compounds read low
MST4 = details: KINOMEscan 353-kinase binding panel, qPCR, at 10 µM, active compounds read low
EPHA1 = details: KINOMEscan 353-kinase binding panel, qPCR, at 10 µM, active compounds read low
CDC2L1 = details: KINOMEscan 353-kinase binding panel, qPCR, at 10 µM, active compounds read low
TNNI3K = details: KINOMEscan 353-kinase binding panel, qPCR, at 10 µM, active compounds read low
[7] = target: Tyrosine-protein kinase Fyn (Homo sapiens) (UniProt P06241); details: KINOMEscan 353-kinase binding panel, qPCR, at 10 µM, active compounds read low
p38-beta = details: KINOMEscan 353-kinase binding panel, qPCR, at 10 µM, active compounds read low
CSK = details: KINOMEscan 353-kinase binding panel, qPCR, at 10 µM, active compounds read low
ACVR2A = details: KINOMEscan 353-kinase binding panel, qPCR, at 10 µM, active compounds read low
PRKCE = details: KINOMEscan 353-kinase binding panel, qPCR, at 10 µM, active compounds read low
[8] = target: Tyrosine-protein kinase SYK (Homo sapiens) (UniProt P43405); details: KINOMEscan 353-kinase binding panel, qPCR, at 10 µM, active compounds read low
[9] = target: Inhibitor of nuclear factor kappa-B kinase subunit alpha (Homo sapiens) (UniProt O15111); details: KINOMEscan 353-kinase binding panel, qPCR; IKK-alpha; at 10 µM; active compounds read low
PIK3CD = details: KINOMEscan 353-kinase binding panel, qPCR, at 10 µM, active compounds read low
CDKL2 = details: KINOMEscan 353-kinase binding panel, qPCR, at 10 µM, active compounds read low
[10] = target: Mitogen-activated protein kinase kinase kinase kinase 4 (Homo sapiens) (UniProt O95819); details: KINOMEscan 353-kinase binding panel, qPCR; MAP4K4; at 10 µM; active compounds read low
DMPK2 = details: KINOMEscan 353-kinase binding panel, qPCR, at 10 µM, active compounds read low
CSNK2A2 = details: KINOMEscan 353-kinase binding panel, qPCR, at 10 µM, active compounds read low
TNIK = details: KINOMEscan 353-kinase binding panel, qPCR, at 10 µM, active compounds read low
DAPK2 = details: KINOMEscan 353-kinase binding panel, qPCR, at 10 µM, active compounds read low
MEK4 = details: KINOMEscan 353-kinase binding panel, qPCR, at 10 µM, active compounds read low
[11] = target: Focal adhesion kinase 1 (Homo sapiens) (UniProt Q05397); details: KINOMEscan 353-kinase binding panel, qPCR; PTK2; at 10 µM; active compounds read low
[12] = target: Tyrosine-protein kinase ABL1 (Homo sapiens) (UniProt P00519); details: KINOMEscan 353-kinase binding panel, qPCR, at 10 µM, active compounds read low
DDR2 = details: KINOMEscan 353-kinase binding panel, qPCR, at 10 µM, active compounds read low
ERK8 = details: KINOMEscan 353-kinase binding panel, qPCR, at 10 µM, active compounds read low
[13] = target: Serine/threonine-protein kinase Chk1 (Homo sapiens) (UniProt O14757); details: KINOMEscan 353-kinase binding panel, qPCR; CHEK1; at 10 µM; active compounds read low
[14] = target: Ribosomal protein S6 kinase alpha-4 (Homo sapiens) (UniProt O75676); details: KINOMEscan 353-kinase binding panel, qPCR, at 10 µM, active compounds read low
GAK = details: KINOMEscan 353-kinase binding panel, qPCR, at 10 µM, active compounds read low

Tyrosine-protein kinase ABL1 (Homo sapiens), sequence (P00519 whole entry, looked up): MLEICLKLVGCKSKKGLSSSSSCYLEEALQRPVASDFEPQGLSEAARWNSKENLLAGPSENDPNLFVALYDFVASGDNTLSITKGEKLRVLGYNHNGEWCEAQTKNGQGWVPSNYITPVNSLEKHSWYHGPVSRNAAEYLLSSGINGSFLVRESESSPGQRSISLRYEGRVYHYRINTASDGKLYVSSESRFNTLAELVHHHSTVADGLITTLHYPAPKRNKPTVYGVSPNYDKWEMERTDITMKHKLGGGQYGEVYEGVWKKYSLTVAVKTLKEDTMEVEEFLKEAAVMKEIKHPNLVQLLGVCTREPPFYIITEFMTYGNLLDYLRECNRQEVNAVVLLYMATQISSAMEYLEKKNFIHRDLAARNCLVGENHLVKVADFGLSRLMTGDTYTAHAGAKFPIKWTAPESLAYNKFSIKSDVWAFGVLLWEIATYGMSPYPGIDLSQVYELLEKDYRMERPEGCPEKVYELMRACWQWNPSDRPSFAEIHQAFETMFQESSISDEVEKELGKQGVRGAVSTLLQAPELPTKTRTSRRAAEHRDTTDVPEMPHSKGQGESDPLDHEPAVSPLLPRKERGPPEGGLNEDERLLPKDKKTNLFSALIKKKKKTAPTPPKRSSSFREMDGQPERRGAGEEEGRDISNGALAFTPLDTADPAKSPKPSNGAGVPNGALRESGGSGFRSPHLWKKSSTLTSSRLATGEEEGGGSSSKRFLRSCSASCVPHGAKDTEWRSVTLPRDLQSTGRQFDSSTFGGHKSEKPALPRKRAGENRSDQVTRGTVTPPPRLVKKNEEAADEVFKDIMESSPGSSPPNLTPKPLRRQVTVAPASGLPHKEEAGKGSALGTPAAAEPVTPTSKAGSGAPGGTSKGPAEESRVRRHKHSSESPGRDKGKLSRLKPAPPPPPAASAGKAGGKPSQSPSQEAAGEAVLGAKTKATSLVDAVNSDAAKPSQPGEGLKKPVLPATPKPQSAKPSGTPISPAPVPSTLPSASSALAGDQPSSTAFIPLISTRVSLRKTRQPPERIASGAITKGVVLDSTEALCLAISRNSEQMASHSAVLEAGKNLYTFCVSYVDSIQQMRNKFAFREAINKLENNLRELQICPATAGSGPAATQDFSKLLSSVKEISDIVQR
Ribosomal protein S6 kinase alpha-4 (Homo sapiens), sequence (O75676 whole entry, looked up): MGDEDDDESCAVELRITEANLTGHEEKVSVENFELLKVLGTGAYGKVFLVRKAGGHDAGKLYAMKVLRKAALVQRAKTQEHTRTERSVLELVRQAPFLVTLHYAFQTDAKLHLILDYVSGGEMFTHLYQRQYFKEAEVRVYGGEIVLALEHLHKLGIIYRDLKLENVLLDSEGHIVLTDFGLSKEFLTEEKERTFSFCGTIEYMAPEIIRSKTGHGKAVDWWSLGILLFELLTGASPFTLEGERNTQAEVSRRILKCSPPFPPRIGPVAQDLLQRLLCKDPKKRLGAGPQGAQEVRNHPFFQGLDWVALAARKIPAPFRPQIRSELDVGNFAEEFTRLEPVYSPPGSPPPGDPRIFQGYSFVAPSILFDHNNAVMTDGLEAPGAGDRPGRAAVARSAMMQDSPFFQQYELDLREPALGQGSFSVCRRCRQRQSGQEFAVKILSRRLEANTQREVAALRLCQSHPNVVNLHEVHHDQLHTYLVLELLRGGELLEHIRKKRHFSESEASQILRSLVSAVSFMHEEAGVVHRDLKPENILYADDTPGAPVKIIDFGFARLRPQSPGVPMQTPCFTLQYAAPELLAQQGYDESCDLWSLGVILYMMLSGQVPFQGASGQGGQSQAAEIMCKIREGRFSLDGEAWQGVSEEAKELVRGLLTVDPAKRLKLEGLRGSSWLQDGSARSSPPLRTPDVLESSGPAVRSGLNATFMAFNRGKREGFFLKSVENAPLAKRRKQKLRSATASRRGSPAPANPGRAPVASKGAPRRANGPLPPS
Aurora kinase A (Homo sapiens), sequence (O14965 whole entry, looked up): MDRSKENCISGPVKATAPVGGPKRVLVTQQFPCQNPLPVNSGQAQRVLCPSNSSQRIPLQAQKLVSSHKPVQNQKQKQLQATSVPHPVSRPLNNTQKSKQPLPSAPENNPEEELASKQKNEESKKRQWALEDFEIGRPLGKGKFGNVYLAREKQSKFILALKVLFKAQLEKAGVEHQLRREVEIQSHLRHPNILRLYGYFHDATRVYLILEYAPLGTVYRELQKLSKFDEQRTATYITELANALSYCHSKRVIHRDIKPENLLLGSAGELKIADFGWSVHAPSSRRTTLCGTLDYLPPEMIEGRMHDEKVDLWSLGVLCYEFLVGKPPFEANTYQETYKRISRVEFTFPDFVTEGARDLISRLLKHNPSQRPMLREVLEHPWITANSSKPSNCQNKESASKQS
Mitogen-activated protein kinase kinase kinase kinase 4 (Homo sapiens), sequence (O95819 whole entry, looked up): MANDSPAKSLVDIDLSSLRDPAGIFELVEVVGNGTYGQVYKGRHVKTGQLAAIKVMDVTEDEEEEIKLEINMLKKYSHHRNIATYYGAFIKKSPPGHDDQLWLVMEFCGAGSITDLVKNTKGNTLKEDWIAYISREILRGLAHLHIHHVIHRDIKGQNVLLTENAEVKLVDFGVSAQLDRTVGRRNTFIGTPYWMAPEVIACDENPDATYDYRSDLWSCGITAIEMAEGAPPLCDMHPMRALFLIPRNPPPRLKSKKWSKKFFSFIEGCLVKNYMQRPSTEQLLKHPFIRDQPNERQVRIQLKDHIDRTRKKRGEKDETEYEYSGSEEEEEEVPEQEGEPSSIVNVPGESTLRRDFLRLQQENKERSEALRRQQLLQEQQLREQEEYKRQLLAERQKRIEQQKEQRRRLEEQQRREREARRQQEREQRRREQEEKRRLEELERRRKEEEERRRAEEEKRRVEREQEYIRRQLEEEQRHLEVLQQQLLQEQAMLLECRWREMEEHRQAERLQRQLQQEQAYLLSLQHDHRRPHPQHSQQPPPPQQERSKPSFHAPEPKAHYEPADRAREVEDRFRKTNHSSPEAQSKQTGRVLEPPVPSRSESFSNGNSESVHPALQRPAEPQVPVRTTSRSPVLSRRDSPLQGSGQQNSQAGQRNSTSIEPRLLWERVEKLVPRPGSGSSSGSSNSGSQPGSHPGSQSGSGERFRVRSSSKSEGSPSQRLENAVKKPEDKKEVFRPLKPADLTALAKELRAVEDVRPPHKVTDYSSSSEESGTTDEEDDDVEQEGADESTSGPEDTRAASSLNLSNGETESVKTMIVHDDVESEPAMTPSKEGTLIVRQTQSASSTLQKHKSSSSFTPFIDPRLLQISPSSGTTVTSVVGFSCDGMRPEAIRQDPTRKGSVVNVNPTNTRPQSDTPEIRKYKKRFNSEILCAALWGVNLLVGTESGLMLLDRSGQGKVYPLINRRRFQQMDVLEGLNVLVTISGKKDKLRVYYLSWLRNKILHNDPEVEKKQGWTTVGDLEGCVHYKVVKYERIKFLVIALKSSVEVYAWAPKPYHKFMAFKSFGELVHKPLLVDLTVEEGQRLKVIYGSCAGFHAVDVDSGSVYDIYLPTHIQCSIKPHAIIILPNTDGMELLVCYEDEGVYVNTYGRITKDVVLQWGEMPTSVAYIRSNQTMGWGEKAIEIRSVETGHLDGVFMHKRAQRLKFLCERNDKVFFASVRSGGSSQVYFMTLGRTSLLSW
Platelet-derived growth factor receptor beta (Homo sapiens), sequence (P09619 whole entry, looked up): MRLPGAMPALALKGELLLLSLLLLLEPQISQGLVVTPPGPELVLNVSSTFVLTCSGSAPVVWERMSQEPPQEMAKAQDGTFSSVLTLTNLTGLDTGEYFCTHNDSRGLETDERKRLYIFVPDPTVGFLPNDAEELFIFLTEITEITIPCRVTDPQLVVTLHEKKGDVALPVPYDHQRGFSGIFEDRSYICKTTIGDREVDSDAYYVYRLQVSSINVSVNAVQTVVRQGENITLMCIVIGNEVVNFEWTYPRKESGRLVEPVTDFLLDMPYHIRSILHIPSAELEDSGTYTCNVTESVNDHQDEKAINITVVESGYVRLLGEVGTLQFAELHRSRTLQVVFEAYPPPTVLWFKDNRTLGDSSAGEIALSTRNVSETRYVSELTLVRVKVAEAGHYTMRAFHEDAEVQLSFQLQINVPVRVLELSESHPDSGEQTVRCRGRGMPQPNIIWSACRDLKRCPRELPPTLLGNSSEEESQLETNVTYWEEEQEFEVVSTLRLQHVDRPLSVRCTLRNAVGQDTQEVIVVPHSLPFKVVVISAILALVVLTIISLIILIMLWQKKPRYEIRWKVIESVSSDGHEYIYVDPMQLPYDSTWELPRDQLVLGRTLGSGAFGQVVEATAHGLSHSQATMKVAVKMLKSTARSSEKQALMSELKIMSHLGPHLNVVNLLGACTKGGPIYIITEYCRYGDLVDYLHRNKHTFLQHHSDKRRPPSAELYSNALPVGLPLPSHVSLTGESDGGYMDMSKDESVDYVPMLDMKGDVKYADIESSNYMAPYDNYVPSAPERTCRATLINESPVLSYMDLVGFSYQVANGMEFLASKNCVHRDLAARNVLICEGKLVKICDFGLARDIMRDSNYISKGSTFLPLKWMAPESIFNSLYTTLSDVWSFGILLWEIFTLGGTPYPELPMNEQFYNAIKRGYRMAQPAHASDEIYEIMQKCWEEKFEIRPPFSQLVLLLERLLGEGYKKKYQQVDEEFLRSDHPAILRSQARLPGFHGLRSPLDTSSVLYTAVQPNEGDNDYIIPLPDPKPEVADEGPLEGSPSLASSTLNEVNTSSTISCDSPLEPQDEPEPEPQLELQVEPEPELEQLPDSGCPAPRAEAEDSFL
Mitogen-activated protein kinase 14 (Homo sapiens), sequence (Q16539 whole entry, looked up): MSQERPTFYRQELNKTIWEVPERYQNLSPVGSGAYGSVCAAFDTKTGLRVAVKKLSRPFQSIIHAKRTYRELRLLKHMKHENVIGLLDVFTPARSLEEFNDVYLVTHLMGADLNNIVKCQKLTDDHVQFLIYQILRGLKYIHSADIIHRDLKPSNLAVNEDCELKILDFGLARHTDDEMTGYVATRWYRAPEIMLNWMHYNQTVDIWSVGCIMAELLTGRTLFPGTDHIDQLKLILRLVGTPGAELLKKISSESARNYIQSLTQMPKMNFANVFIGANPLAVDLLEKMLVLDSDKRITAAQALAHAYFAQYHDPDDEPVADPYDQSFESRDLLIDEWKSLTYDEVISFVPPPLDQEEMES

percent of control binding [1]: 87% (inactive)
percent of control binding [2]: 88% (inactive)
percent of control binding [3]: 96% (inactive)
percent of control binding (MAP4K1): 100% (inactive)
percent of control binding [4]: 96% (inactive)
percent of control binding (MAP3K4): 90% (inactive)
percent of control binding (TESK1): 89% (inactive)
percent of control binding [5]: 100% (inactive)
percent of control binding (DLK): 82% (inactive)
percent of control binding (PKN1): 100% (inactive)
percent of control binding [6]: 100% (inactive)
percent of control binding (MST4): 100% (inactive)
percent of control binding (EPHA1): 100% (inactive)
percent of control binding (CDC2L1): 81% (inactive)
percent of control binding (TNNI3K): 82% (inactive)
percent of control binding [7]: 82% (inactive)
percent of control binding (p38-beta): 100% (inactive)
percent of control binding (CSK): 100% (inactive)
percent of control binding (ACVR2A): 88% (inactive)
percent of control binding (PRKCE): 64% (inactive)
percent of control binding [8]: 100% (inactive)
percent of control binding [9]: 74% (inactive)
percent of control binding (PIK3CD): 65% (inactive)
percent of control binding (CDKL2): 96% (inactive)
percent of control binding [10]: 66% (inactive)
percent of control binding (DMPK2): 72% (inactive)
percent of control binding (CSNK2A2): 98% (inactive)
percent of control binding (TNIK): 100% (inactive)
percent of control binding (DAPK2): 100% (inactive)
percent of control binding (MEK4): 79% (inactive)
percent of control binding [11]: 100% (inactive)
percent of control binding [12]: 100% (inactive)
percent of control binding ([12]; ABL1(E255K)): 94% (inactive)
percent of control binding ([12]; ABL1(F317I)): 100% (inactive)
percent of control binding ([12]; ABL1(F317L)): 92% (inactive)
percent of control binding ([12]; ABL1(H396P)): 98% (inactive)
percent of control binding ([12]; ABL1(M351T)): 100% (inactive)
percent of control binding ([12]; ABL1(Q252H)): 100% (inactive)
percent of control binding ([12]; ABL1(T315I)): 86% (inactive)
percent of control binding ([12]; ABL1(Y253F)): 100% (inactive)
percent of control binding (DDR2): 65% (inactive)
percent of control binding (ERK8): 100% (inactive)
percent of control binding [13]: 100% (inactive)
percent of control binding ([14]; RPS6KA4(Kin.Dom.1)): 100% (inactive)
percent of control binding ([14]; RPS6KA4(Kin.Dom.2)): 100% (inactive)
percent of control binding (GAK): 90% (inactive)
SMILES: Cc1cc2nc(NCCCO)n(CC(=O)c3cc(C(C)(C)C)c(O)c(C(C)(C)C)c3)c2cc1C
